Reference: patent US20220125959A1, “PROSTATE-SPECIFIC MEMBRANE ANTIGEN (PSMA) INHIBITORS AS DIAGNOSTIC AND RADIONUCLIDE THERAPEUTIC AGENTS” (FIVE ELEVEN PHARMA INC., priority 2019, published 2022)
Read-outs that look alike come from different tables or passages of the source. One block for each compound: values may come before it.

Tests used:
[1] = biological target: PSMA (Homo sapiens, UniProt Q04609); test: PSMA competitive binding, PC-3 PIP cells with [125I]MIP-1095; set-up: expressed in transfected cells; host or cells: PC-3 PIP cells
Description: In vitro binding assays were carried out to determine the PSMA binding affinity of various compounds. By incubating PSMA positive cells either with: 1). LNCaP with 0.2 nM [^68Ga]PSMA-11 or [^125I]MIP-1095, as the ligand, in the presence of 10 different concentrations of competing ligands; non-specific binding was defined with 20 μM 2-PMPA (2-(phosphonomethyl)pentanedioic acid); or 2). PC-3 PIP cells with [^125I]MIP-1095 (0.18 nM diluted in PBS) in presence of different concentration of test compounds ([…] diluted in PBS containing 0.1% bovine serum albumin). Nonspecific binding (NSB) was defined with 2 μM the known PSMA inhibitor, PSMA-617. After incubation at 37° C. for 1 h, the bound and free fractions were separated by vacuum filtration through GF/B filters using a Brandel M-24R cell harvester. The filters were washed twice with cold Tris-HCl buffer (50 mM, pH=7.4), and the radioactivity on the filters was counted in a gamma counter (Wizard^2, Perkin-Elmer) with 50% efficiency. The nonspecific bound was less than 10% of the total bound. Data were analyzed using GraphPad Prism 6.0 with a nonlinear regression algorithm to obtain the half maximal inhibitory concentration (IC50).
The binding affinities to PSMA of the test compounds were measured by a competitive binding assay using either LNCap or PC-3 PIP cells suspension and the known radiotracers known to have high affinity and specificity to PSMA, [^68Ga]PSMA-11 or [^125I]MIP-1095. The IC50 values of four iodinated compounds, three DOTA, DOTAG and DOTA(GA)2 related compounds and two known PSMA inhibitors are shown in Table 1. Complexes of compound 4 and natural Ga and natural Lu were also tested. […] After labeling with radioisotope they are expected to bind to the tumor tissues over expressing PSMA binding sites.

[2] = tested on: PIP tumor and PC3 tumor; test: Biodistribution of 125I labeled compounds 17, 18, 26 and 27 in tumor bearing nude mice; format: in vivo; details: for Biodistribution: Bladder* / Biodistribution: Stomach* / Biodistribution: large intestine* / Biodistribution: small intestine*: organ with content; for PIP/blood / PIP/muscle: ratio
Description: Radioiodination and Purification: 100 μg of either precursor 13, 14, 22 or 23 were dissolved in 100 μL EtOH; 22 μL Na^125I (1033-1118 μCi in 0.1 N NaOH), 100 μL 1N HCl and 100 μL 3% H2O2 were added. After 15 minutes at room temperature, the reaction was stopped by adding 150 μL sat. NaHSO3. The reaction mixture was slowly added to 1.5 mL sat. NaHCO3. Vial was rinsed with 1000 μL EtOH and mixture was diluted further to 10 mL mL water. The active sample was transferred onto an activated C4 mini column. The mixture was pushed through, washed twice with 3 mL water and the product was eluted with 1 mL ACN. Added 100 μL DMSO. The mixture was concentrated to ˜100 μL and purified by HPLC (Agilent Eclipse XCD C18 150×4.6 mm, 5 μm; 4 mL/min, gradient (ACN and water; 0-1 min (20/80), 1-16 min (20/80-100/0), 16-16.5 min (100/0-20/80), 16.5-20 min 20/80) (collected every minute). The sample was blown to dryness under argon, re-dissolved in 500 μL CH2Cl2 and 1 mL TFA was added at room temperature. After 1 hr the solution was blown to dryness and activity taken into 1 mL EtOH (10 μL saturated ascorbic acid/EtOH was added). Isolated activities for [^125I]17, 18, 26, and 27 were 197, 189, 600 and 197 μCi respectively. A representative picture of HPLC profiles (FIG. 3) for radiolabeled protected (intermediate), cold standard and radioactive trace of final compound is shown for [^125I]26.
For iv injection 150 μL of labeled solution was diluted with saline to 3.75 mL. Mice were injected with 2˜3 μCi of [^125I]18, 27, 26, and 18 in 0.15 mL saline. Injected radioactivity was 2 to 3 μCi.
Biodistribution study of [^125I]18, 27, 26, and 18 in tumor bearing nude mice were evaluated for their ability to localization of PSMA positive tumor (Tables 5, 6, 7 and 8). It was observed that [^125I]26 and [^125I] […] These new agents are valuable for radionuclide therapy, when labeled with beta or alpha-emitting isotopes; but these agents will also be useful as diagnostic agents when labeled with gamma-emitting isotopes.

[3] = n = 3 (a: n = 2), read-out: IC50 *(PC-3 PIP cells and [125I]MIP-1095)

Chain of PSMA (Q04609 whole entry, species assumed): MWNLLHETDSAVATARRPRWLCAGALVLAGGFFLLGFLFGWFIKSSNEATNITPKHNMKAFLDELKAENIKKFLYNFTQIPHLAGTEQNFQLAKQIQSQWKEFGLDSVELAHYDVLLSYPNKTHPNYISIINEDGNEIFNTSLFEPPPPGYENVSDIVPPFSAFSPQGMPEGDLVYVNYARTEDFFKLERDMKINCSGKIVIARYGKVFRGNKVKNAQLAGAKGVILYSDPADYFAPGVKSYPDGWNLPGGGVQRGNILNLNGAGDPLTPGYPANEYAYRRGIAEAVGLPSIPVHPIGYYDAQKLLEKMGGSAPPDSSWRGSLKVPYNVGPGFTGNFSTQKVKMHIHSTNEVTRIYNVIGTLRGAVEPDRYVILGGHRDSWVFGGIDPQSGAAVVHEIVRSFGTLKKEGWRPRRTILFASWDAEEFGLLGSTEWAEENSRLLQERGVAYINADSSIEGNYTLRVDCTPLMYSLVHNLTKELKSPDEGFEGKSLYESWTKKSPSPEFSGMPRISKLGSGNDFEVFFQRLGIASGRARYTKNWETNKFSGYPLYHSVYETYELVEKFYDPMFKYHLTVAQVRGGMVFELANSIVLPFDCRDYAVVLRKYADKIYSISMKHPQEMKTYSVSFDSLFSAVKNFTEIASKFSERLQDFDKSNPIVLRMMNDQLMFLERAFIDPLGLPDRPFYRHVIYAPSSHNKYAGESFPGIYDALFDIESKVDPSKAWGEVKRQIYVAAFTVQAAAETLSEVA

IC50 [1, 3]: 22.6 ± 1.59 nM
SMILES: O=C(O)CCC(C(=O)O)N1CCN(CC(=O)O)CCN(C(CCC(=O)N[C@@H](CCC(=O)O)C(=O)N[C@@H](CCC(=O)O)C(=O)N[C@@H](Cc2ccc(OCC(=O)N[C@@H](Cc3ccccc3)C(=O)NCCCC[C@H](NC(=O)N[C@@H](CCC(=O)O)C(=O)O)C(=O)O)cc2)C(=O)O)C(=O)O)CCN(CC(=O)O)CC1 (stereo partly drawn) [Compound 29, (((1S)-5-((2S)-2-(2-(4-((2S)-2-((2S)-2-((2S)-2-(4-(4,10-Bis(carboxymethyl)-7-(1,3-dicarboxypropyl)-1,4,7,10-tetraazacyclododecan-1-yl)-4-carboxybutanamido)-4-carboxybutanamido)-4-carboxybutanamido)-2-carboxyethyl)phenoxy)acetamido)-3-phenylpropanamido)-1-carboxypentyl)carbamoyl)-L-glutamic acid]

IC50 [1, 3]: 22.2 ± 2.1 nM
SMILES: O=C([O-])CN1CCN(C(CCC(=O)NCC(=O)N[C@@H](Cc2ccc(OCC(=O)N[C@@H](Cc3ccccc3)C(=O)NCCCC[C@H](NC(=O)N[C@@H](CCC(=O)O)C(=O)O)C(=O)O)cc2)C(=O)O)C(=O)[O-])CCN(CC(=O)[O-])CCN(C(CCC(=O)O)C(=O)O)CC1.[Ga+3] (stereo partly drawn) [[^natGa]4, (4S,11S,15S)-4-benzyl-1-(4-((2S)-2-(2-(4-(4,10-bis(carboxymethyl)-7-(1,3-dicarboxypropyl)-1,4,7,10-tetraazacyclododecan-1-yl)-4-carboxylatebutanamido)acetamido)-2-carboxyethyl)phenoxy)-2,5,13-trioxo-3,6,12,14-tetraazaheptadecane-11,15,17-tricarboxylate gallium]

SMILES: O=C(O)CC[C@H](NC(=O)N[C@@H](CCCCNC(=O)[C@H](Cc1ccccc1)NC(=O)COc1ccc(C[C@H](NC(=O)CNC(=O)CCC2C(=O)[O][Lu-4]345678[O]C(=O)CN9CC[N+]23CC[N+]4(CC[N+]5(CC9)C(CCC(=O)[OH+]6)C(=O)[O]7)CC(=O)[O]8)C(=O)O)cc1)C(=O)O)C(=O)O (stereo partly shown) [[^natLu]4]
IC50 [1]: 18.7 ± 0.3 nM

IC50 [1, 3]: 28.1 ± 0.85 nM
SMILES: O=C(O)CC[C@H](NC(=O)N[C@@H](CCCCNC(=O)[C@H](Cc1ccccc1)NC(=O)COc1ccc(C(=O)NCCCC[C@H](NC(=O)CNC(=O)CCC(C(=O)O)N2CCN(CC(=O)O)CCN(CC(=O)O)CCN(CC(=O)O)CC2)C(=O)O)cc1)C(=O)O)C(=O)O (stereo partly drawn) [Compound 38, (((1S)-1-Carboxy-5-((2S)-2-(2-(4-(((5S)-5-carboxy-5-(2-(4-carboxy-4-(4,7,10-tris(carboxymethyl)-1,4,7,10-tetraazacyclododecan-1-yl)butanamido)acetamido)pentyl)carbamoyl)phenoxy)acetamido)-3-phenylpropanamido)pentyl)carbamoyl)-L-glutamic acid]

IC50 [1, 3]: 2.63 ± 0.13 nM
SMILES: O=C(O)CC[C@H](NC(=O)N[C@@H](CCCCNC(=O)[C@H](Cc1ccccc1)NC(=O)[C@H](CCC(=O)O)NC(=O)c1ccc(I)cc1)C(=O)O)C(=O)O [Compound 17, (((S)-1-Carboxy-5-((S)-2-((S)-4-carboxy-2-(4-iodobenzamido)butanamido)-3-phenylpropanamido)pentyl)carbamoyl)-L-glutamic acid]

IC50 [1, 3]: 1.99 ± 0.06 nM
SMILES: O=C(O)CC[C@H](NC(=O)N[C@@H](CCCCNC(=O)[C@H](Cc1ccccc1)NC(=O)[C@H](CCC(=O)O)NC(=O)[C@H](CCC(=O)O)NC(=O)c1ccc(I)cc1)C(=O)O)C(=O)O [Compound 18, (((S)-1-Carboxy-5-((S)-2-((S)-4-carboxy-2-((S)-4-carboxy-2-(4-iodobenzamido)butanamido)butanamido)-3-phenylpropanamido)pentyl)carbamoyl)-L-glutamic acid]

IC50 [1, 3]: 4.74 ± 0.37 nM
SMILES: O=C(O)CC[C@H](NC(=O)N[C@@H](CCCCNC(=O)[C@H](Cc1ccccc1)NC(=O)COc1ccc(C[C@H](NC(=O)[C@H](CCC(=O)O)NC(=O)c2ccc(I)cc2)C(=O)O)cc1)C(=O)O)C(=O)O [Compound 26, (((S)-1-Carboxy-5-((S)-2-(2-(4-((S)-2-carboxy-2-((S)-4-carboxy-2-(4-iodobenzamido)butanamido)ethyl)phenoxy)acetamido)-3-phenylpropanamido)pentyl)carbamoyl)-L-glutamic acid]

IC50 [1, 3]: 47.8 ± 3.16 nM
SMILES: O=C(O)CCc1ccc(O)c(CN(CCN(CC(=O)O)Cc2cc(CCC(=O)NCCCCCC(=O)NCCCC[C@H](NC(=O)N[C@@H](CCC(=O)O)C(=O)O)C(=O)O)ccc2O)CC(=O)O)c1 [PSMA-11, Glu-NH—CO—NH-Lys-(Ahx)-(HBED-CC), reference compound]

Biodistribution: Blood ([2]; 1 h): 0.71 ± 0.31 % ID/g
Biodistribution: Bone ([2]; 1 h): 0.89 ± 0.08 % ID/g
Biodistribution: Heart ([2]; 1 h): 3.06 ± 0.48 % ID/g
Biodistribution: Kidney ([2]; 1 h): 96.21 ± 21.68 % ID/g
Biodistribution: Liver ([2]; 1 h): 3.57 ± 0.32 % ID/g
Biodistribution: Lung ([2]; 1 h): 3.16 ± 0.55 % ID/g
Biodistribution: Muscle ([2]; 1 h): 0.95 ± 0.27 % ID/g
Biodistribution: PC3 tumor ([2]; 1 h): 2.22 ± 0.58 % ID/g
Biodistribution: PIP tumor ([2]; 1 h): 13.29 ± 3.46 % ID/g
Biodistribution: Pancreas ([2]; 1 h): 1.66 ± 0.93 % ID/g
Biodistribution: Skin ([2]; 1 h): 1.48 ± 0.44 % ID/g
Biodistribution: Spleen ([2]; 1 h): 6.83 ± 0.46 % ID/g
Biodistribution: gland ([2]; 1 h): 4.03 ± 0.46 % ID/g
Biodistribution: thyroid ([2]; 1 h): 15.99 ± 1.88 % ID/g
Biodistribution: Bladder* ([2]; 1 h): 97.62 ± 20.87 % ID/g
Biodistribution: Stomach* ([2]; 1 h): 0.46 ± 0.29 % ID/g
Biodistribution: large intestine* ([2]; 1 h): 1.12 ± 0.65 % ID/g
Biodistribution: small intestine* ([2]; 1 h): 1.98 ± 0.27 % ID/g
PIP/blood ([2]; 1 h): 21.30 ± 8.28
PIP/muscle ([2]; 1 h): 16.14 ± 10.36
Biodistribution: Blood ([2]; 4 h): 0.33 ± 0.17 % ID/g
Biodistribution: Bone ([2]; 4 h): 0.45 ± 0.23 % ID/g
Biodistribution: Heart ([2]; 4 h): 1.60 ± 0.46 % ID/g
Biodistribution: Kidney ([2]; 4 h): 69.39 ± 24.24 % ID/g
Biodistribution: Liver ([2]; 4 h): 2.62 ± 1.62 % ID/g
Biodistribution: Lung ([2]; 4 h): 1.50 ± 0.65 % ID/g
Biodistribution: Muscle ([2]; 4 h): 0.69 ± 0.27 % ID/g
Biodistribution: PC3 tumor ([2]; 4 h): 1.20 ± 0.52 % ID/g
Biodistribution: PIP tumor ([2]; 4 h): 15.27 ± 5.40 % ID/g
Biodistribution: Pancreas ([2]; 4 h): 0.89 ± 0.13 % ID/g
Biodistribution: Skin ([2]; 4 h): 0.81 ± 0.37 % ID/g
Biodistribution: Spleen ([2]; 4 h): 4.37 ± 1.70 % ID/g
Biodistribution: gland ([2]; 4 h): 2.25 ± 0.80 % ID/g
Biodistribution: thyroid ([2]; 4 h): 26.99 ± 18.70 % ID/g
Biodistribution: Bladder* ([2]; 4 h): 123.13 ± 40.10 % ID/g
Biodistribution: Stomach* ([2]; 4 h): 0.72 ± 0.76 % ID/g
Biodistribution: large intestine* ([2]; 4 h): 0.74 ± 0.25 % ID/g
Biodistribution: small intestine* ([2]; 4 h): 1.11 ± 0.82 % ID/g
PIP/blood ([2]; 4 h): 50.29 ± 15.07
PIP/muscle ([2]; 4 h): 25.78 ± 14.13
Liver uptakes ([2]; mouse, in vivo): low
SMILES: O=C(O)CC[C@H](NC(=O)N[C@@H](CCCCNC(=O)[C@H](Cc1ccccc1)NC(=O)[C@H](CCC(=O)O)NC(=O)[C@H](CCC(=O)O)NC(=O)c1ccc([125I])cc1)C(=O)O)C(=O)O [[^125I]18]
